Test results taken from patent US20100234306A1, “USE OF A PEPTIDE AS A THERAPEUTIC AGENT” (priority 2007, published 2010).
Where no end group is shown, it is not given here.

Tested on: drug-resistant Mycobacterium tuberculosis
Details: Mycobacterium tuberculosis resistant against PAS, streptomycin and isoniazid; Middlebrook 7H12, seven days; peptide 10 micrograms per ml

MQMKKVLDS-OH [AIP-1]
% inhibition: 100.0%
